Experimental data reported in ChEMBL document CHEMBL5120937, “Design, Synthesis, and Biological Activity of l-1'-Homologated Adenosine Derivatives” (ACS Med Chem Lett, 2022).

Tests used:
[1] = biological target: T1, Peroxisome proliferator-activated receptor alpha (Homo sapiens) (UniProt Q07869); experiment: Binding affinity to PPARalpha (unknown origin) at 10 uM by TR-FRET based LanthaScreen competitive binding assay relative to control
T1 sequence (whole entry): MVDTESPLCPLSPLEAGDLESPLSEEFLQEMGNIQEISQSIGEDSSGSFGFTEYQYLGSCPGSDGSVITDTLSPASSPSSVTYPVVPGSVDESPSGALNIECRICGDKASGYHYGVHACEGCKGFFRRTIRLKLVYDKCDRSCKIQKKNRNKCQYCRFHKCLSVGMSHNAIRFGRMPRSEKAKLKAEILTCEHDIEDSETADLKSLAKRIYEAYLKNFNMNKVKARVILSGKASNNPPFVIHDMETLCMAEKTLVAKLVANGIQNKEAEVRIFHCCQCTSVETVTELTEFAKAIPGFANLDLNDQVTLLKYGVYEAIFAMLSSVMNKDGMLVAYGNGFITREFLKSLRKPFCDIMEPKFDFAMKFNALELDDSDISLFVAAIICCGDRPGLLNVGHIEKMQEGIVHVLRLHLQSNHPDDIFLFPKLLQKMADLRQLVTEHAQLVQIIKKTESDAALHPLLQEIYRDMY

[2] = biological target: T2, Peroxisome proliferator-activated receptor gamma (Homo sapiens) (UniProt P37231); experiment: Binding affinity to PPARgamma (unknown origin) at 10 uM by TR-FRET based LanthaScreen competitive binding assay relative to control
T2 sequence (whole entry): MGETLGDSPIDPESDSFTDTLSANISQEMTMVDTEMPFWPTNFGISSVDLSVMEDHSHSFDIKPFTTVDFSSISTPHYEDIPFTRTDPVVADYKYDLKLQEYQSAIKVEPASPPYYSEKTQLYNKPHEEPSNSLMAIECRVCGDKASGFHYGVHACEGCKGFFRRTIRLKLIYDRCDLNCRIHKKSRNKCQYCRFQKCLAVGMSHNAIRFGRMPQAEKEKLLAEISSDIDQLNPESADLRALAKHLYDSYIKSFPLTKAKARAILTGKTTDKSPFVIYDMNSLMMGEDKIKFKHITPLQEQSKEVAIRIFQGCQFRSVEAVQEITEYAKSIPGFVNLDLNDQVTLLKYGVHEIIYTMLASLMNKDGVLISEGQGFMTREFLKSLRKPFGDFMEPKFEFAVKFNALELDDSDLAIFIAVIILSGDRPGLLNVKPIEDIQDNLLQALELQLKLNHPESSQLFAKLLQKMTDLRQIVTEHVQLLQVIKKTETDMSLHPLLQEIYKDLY

[3] = biological target: T3, Peroxisome proliferator-activated receptor delta (Homo sapiens) (UniProt Q03181); experiment: Binding affinity to PPARdelta (unknown origin) at 10 uM by TR-FRET based LanthaScreen competitive binding assay relative to control
T3 sequence (whole entry): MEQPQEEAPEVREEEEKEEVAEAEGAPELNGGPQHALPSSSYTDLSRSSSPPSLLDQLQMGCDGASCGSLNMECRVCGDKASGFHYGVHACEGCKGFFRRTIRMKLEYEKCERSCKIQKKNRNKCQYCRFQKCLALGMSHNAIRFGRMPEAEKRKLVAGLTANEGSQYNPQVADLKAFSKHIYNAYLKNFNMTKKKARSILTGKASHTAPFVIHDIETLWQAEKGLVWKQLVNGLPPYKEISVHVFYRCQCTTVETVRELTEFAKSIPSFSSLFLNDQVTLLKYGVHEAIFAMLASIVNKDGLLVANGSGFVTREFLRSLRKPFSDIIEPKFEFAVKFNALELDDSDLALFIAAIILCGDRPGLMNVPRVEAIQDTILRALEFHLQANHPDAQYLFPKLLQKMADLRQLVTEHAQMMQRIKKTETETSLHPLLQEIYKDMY

[4] = biological target: T4, Peroxisome proliferator-activated receptor delta (Homo sapiens, UniProt Q03181)
T4 sequence (Q03181 whole entry): T3 sequence (whole entry)
Description: Binding affinity to PPARdelta (unknown origin) by TR-FRET based LanthaScreen competitive binding assay

Mesenchymal stem cells [5] = experiment: cells; settings: Homo sapiens, 120 h
Description: Induction of adipogenesis in human differentiated BMMSC cells assessed as increase in adiponectin secretion and measured on 5 day in presence of IDX induction medium by ELISA

Mesenchymal stem cells [6] = experiment: Induction of adipogenesis in human differentiated BMMSC cells assessed as fold increase in adiponectin production at 10 uM measured on 5 day in presence of IDX induction medium by ELISA; format: functional

Activity [1] | Activity [2] | Activity [3] | Compound | also measured
17.2% | – | – | O[C@H]1[C@@H](O)CO[C@@H]1Cn1cnc2c(NCc3cccc(I)c3)nc(Cl)nc21 | –
7.6% | 11.5% | 8% | O[C@H]1[C@@H](O)CO[C@@H]1Cn1cnc2c(NCc3cccc(F)c3)ncnc21 | –
19.1% | 10.7% | – | O[C@H]1[C@@H](O)CO[C@@H]1Cn1cnc2c(NCc3cccc(Cl)c3)nc(Cl)nc21 | Activity ([3]; filed as antagonist): 46.3%
8.7% | 25.5% | – | O[C@H]1[C@@H](O)CO[C@@H]1Cn1cnc2c(NCc3cccc(Br)c3)nc(Cl)nc21 | Ki [4]: 3.4 µM
3.8% | 12.5% | 1.2% | O[C@H]1[C@@H](O)CO[C@@H]1Cn1cnc2c(NCc3cccc(Br)c3)ncnc21 | –
– | – | – | CCc1ccc(CCOc2ccc(CC3SC(=O)NC3=O)cc2)nc1 (stereo unspecified) [PIOGLITAZONE] | EC50 (Mesenchymal stem cells [5]): 900 nM; fold change (FC) (Mesenchymal stem cells [6]): 7.8
3.1% | 5.9% | 21.5% | O[C@H]1[C@@H](O)CO[C@@H]1Cn1cnc2c(NCc3cccc(Cl)c3)ncnc21 | –
14.5% | 6.3% | 29.5% | O[C@H]1[C@@H](O)CO[C@@H]1Cn1cnc2c(NCc3cccc(F)c3)nc(Cl)nc21 | –
13.2% | 3.9% | 16.3% | O[C@H]1[C@@H](O)CO[C@@H]1Cn1cnc2c(NCc3cccc(I)c3)ncnc21 | –
3.9% | – | – | O[C@@H]1[C@H](O)CO[C@H]1Cn1cnc2c(NCc3cccc(I)c3)nc(Cl)nc21 | –
– | – | – | COc1ccc(Cl)cc1C(=O)NCCc1ccc(S(=O)(=O)NC(=O)NC2CCCCC2)cc1 [GLYBURIDE] | fold change (FC) (Mesenchymal stem cells [6]): 6.2
